According to patent US20230193348A1, “DPP3 FOR THERAPY GUIDANCE, MONITORING AND STRATIFICATION OF NT-ADM ANTIBODIES IN PATIENTS WITH SHOCK” (4TEEN4 PHARMACEUTICALS GMBH, priority 2020, published 2023):

Columns and labels:
[1] = phase I study; cited from earlier work
[2] = test system: patients with septic shock and elevated adrenomedullin; experiment: AdrenOSS-2 phase II clinical trial, 14-day mortality; format: in vivo, human; conditions: vs placebo
Text: AdrenOSS-2 is a double-blind, placebo-controlled, randomized, multicenter, proof of concept and dose-finding phase II clinical trial to investigate the safety, tolerability and efficacy of the N-terminal ADM antibody named Adrecizumab in patients with septic shock and elevated adrenomedullin (Geven et al. BMJ Open 2019;9:e024475). In total, 301 patients with septic shock and bio-ADM concentration > 70 pg/mL were randomized (2:1:1) to treatment with a single intravenous infusion over approximately 1 hour with either placebo (n=152), adrecizumab 2 ng/kg (n=72) or adrecizumab 4 ng/kg (n=77). All-cause mortality within 28 (90) days after inclusion was 25.8% (34.8%). Mean age was 68.4 years and 61% were male. For the per protocol analysis, n=294 patients remained eligible, and 14-day all-cause mortality rate was 18.5%.
In patients treated with Adrecizumab (both doses combined, per protocol population), a trend to lower short term mortality (14 days post admission) was observed compared to placebo (Hazard ratio (HR) 0.701 [0.408-1.21], p=0.100) (FIG. 8).

For “Adrecizumab: humanized version of an N-terminal anti-ADM antibody; heavy chain SEQ ID NO: 32, light chain SEQ ID NO: 33”, the “safety and tolerability, adverse events” value [1] is listed as “no serious adverse events were observed”, the “HR 14-day mortality” value ([2]; patients with DPP3 <40) is listed as 0.385 and the “HR 14-day mortality” value ([2]; patients with DPP3 <50 (ng/mL on admission)) is listed as 0.426. For the same substance, the “HR 14-day mortality” value ([2]; patients with DPP3 <60) was 0.449, the “HR 14-day mortality” value ([2]; patients with DPP3 <70) was 0.546 and the “HR 14-day mortality” value ([2]; patients with DPP3 >40) was 1.35. For the same substance, the “HR 14-day mortality” value ([2]; patients with DPP3 >50 (ng/mL on admission)) was 1.69, the “HR 14-day mortality” value ([2]; patients with DPP3 >60) was 1.62 and the “HR 14-day mortality” value ([2]; patients with DPP3 >70) was 1.24.
